Test results: patent US20250382317A1 (EVEXTA BIO, priority 2022, published 2025)
In brackets after ≈: the same amount, converted by molar mass. Structures can show the parent of a compound that is named as a salt.

How the values were obtained:
[1] = Solubility in HCl 0.01N (pH 1.0) and phosphate saline buffer (pH 7.4), LC-MSMS; conditions: thermodynamic from solid
Method: (§1) For each compound, three solutions were prepared in HCl 0.01N (pH 1.0) at 500 μM and three solutions in phosphate saline buffer (pH 7.4) at 500 μM. The solutions were prepared by dissolving each compound in the adequate solvent in opaque tubes and stirred 24 hours at room temperature. After 24 hours, for each solution, an aliquot was centrifuged 10 minutes at 3 500 rpm in order to separate the insoluble fraction from the soluble fraction. The supernatant was taken and diluted in H2O (1/20) before injection in LC-MSMS. After HPLC separation, analytes are detected and quantified by mass spectrometry. A standard curve is performed for each test substance. The solubility of each test substance was determined by calculating the concentration of each supernatant according to the standard curve.

physchem = conditions: pH 7.4, aqueous buffer, thermodynamic from solid
Method: as §1

Cathepsin B = Cathepsin B (Homo sapiens, UniProt P07858); test: Cathepsin-B mediated drug release test; assay type: in vitro ADME; conditions: 10 units/mL activated Cathepsin B, 25 mM sodium acetate pH 5.5, 37° C., 0-120 min, LC-MS of released free drug (FIG. 1)
Method: Drug release of (Z)-3-(2-(5-bromo-1H-indol-3-yl)-2-cyanovinyl)-4-methoxybenzonitrile from Example 27 was performed using cathepsin B enzyme.
Cathepsin B (50 units/mL) was preincubated in activation buffer containing 25 mM sodium acetate (pH 5.5), 30 mM DTT and 15 mM EDTA for 15 min at 37° C. and then added as a 20% (v/v) addition to initiate each reaction.
Final in vitro cathepsin B reaction mixtures will contain 25 mM sodium acetate (pH 5.5), 10 units/mL activated Cathepsin B, 30 mM DTT and 15 mM EDTA, and 0.5 μg/mL of Example 27 in a 2.5% (v/v) incubation sample background.
Reactions will be terminated by addition of organic solvent and the supernatant analyzed by LC-MS to quantify released free drug.

[2] = phosphate saline buffer, pH 7.4, aqueous buffer
[3] = HCl 0.01N, pH 1, simulated gastric fluid

| Structure (SMILES) | solubility at 24 h [1, 2] [µM] | solubility at 24 h [1, 3] [µM] | solubility (physchem) [µM] | Drug release of (Z)-3-(2-(5-bromo-1H-indol-3-yl)-2-cyanovinyl)-4-methoxybenzonitrile (Cathepsin B) |
| --- | --- | --- | --- | --- |
| COc1ccc(C#N)cc1/C=C(\C#N)c1cn(C(=O)CCCCP(=O)(O)O)c2ccc(Br)cc12 [Example 1, (Z)-5-(5-bromo-3-(1-cyano-2-(5-cyano-2-methoxyphenyl)vinyl)-1H-indol-1-yl)-5-oxopentylphosphonic acid] | 497 (≈ 270 µg/mL) |  |  |  |
| COc1ccc(C#N)cc1/C=C(\C#N)c1cn(C(=O)CCP(=O)(O)O)c2ccc(Br)cc12 [Example 2, (Z)-3-(5-bromo-3-(1-cyano-2-(5-cyano-2-methoxyphenyl)vinyl)-1H-indol-1-yl)-3-oxopropylphosphonic acid] | 12 (≈ 6.17 µg/mL) |  |  |  |
| COc1ccc(C#N)cc1/C=C(\C#N)c1cn(C(=O)CCCCCCP(=O)(O)O)c2ccc(Br)cc12 [Example 3, (Z)-7-(5-bromo-3-(1-cyano-2-(5-cyano-2-methoxyphenyl)vinyl)-1H-indol-1-yl)-7-oxoheptylphosphonic acid] | 294 (≈ 168 µg/mL) |  |  |  |
| COc1ccc2c(/C(C#N)=C/c3cc(C#N)ccc3OC)cn(C(=O)CCCCP(=O)(O)O)c2c1 [Example 4, (Z)-5-(3-(1-cyano-2-(5-cyano-2-methoxyphenyl)vinyl)-6-methoxy-1H-indol-1-yl)-5-oxopentylphosphonic acid] | 33 (≈ 16.3 µg/mL) |  |  |  |
| COc1ccc(C#N)cc1/C=C(\C#N)c1cn(C(=O)CCCCP(=O)([O-])O)c2ccc(Br)cc12.[Na+] [Example 6, Sodium (Z)-hydrogen5-(5-bromo-3-(1-cyano-2-(5-cyano-2-methoxyphenyl)vinyl)-1H-indol-1-yl)-5-oxopentylphosphonate] | 206 | 34 |  |  |
| COc1ccc(C#N)cc1/C=C(\C#N)c1cn(C(=O)CCP(=O)([O-])O)c2ccc(Br)cc12.[Na+] [Example 7, sodium (Z)-hydrogen3-(5-bromo-3-(1-cyano-2-(5-cyano-2-methoxyphenyl)vinyl)-1H-indol-1-yl)-3-oxopropylphosphonate] | 103 | < 5 |  |  |
| COc1ccc(C#N)cc1/C=C(\C#N)c1cn(C(=O)CCCP(=O)([O-])O)c2ccc(Br)cc12.[Na+] [Example 8, sodium (Z)-hydrogen4-(5-bromo-3-(1-cyano-2-(5-cyano-2-methoxyphenyl)vinyl)-1H-indol-1-yl)-4 oxobutylphosphonate] | 71 | < 5 |  |  |
| COc1ccc(C#N)cc1/C=C(\C#N)c1cn(C(=O)CCCCCCP(=O)([O-])O)c2ccc(Br)cc12.[Na+] [Example 10, sodium (Z)-hydrogen7-(5-bromo-3-(1-cyano-2-(5-cyano-2-methoxyphenyl)vinyl)-1H-indol-1-yl)-7-oxoheptylphosphonate] | 141 | 93 |  |  |
| COc1ccc2c(/C(C#N)=C/c3cc(C#N)ccc3OC)cn(C(=O)CCCCP(=O)([O-])O)c2c1.[Na+] [Example 11, sodium (Z)-hydrogen5-(3-(1-cyano-2-(5-cyano-2-methoxyphenyl)vinyl)-6-methoxy-1H-indol-1-yl)-5-oxopentylphosphonate] | 476 | 10 |  |  |
| COc1ccc2c(/C(C#N)=C/c3cc(C#N)ccc3OC)cn(C(=O)CCCCCCP(=O)([O-])O)c2c1.[Na+] [Example 12, sodium (Z)-hydrogen7-(3-(1-cyano-2-(5-cyano-2-methoxyphenyl)vinyl)-6-methoxy-1H-indol-1-yl)-7-oxoheptylphosphonate] | 465 | 109 |  |  |
| COc1ccc(C#N)cc1/C=C(\C#N)c1cn(C(=O)CCCP(=O)([O-])[O-])c2ccc(Br)cc12.[Na+].[Na+] [Example 13, disodium (Z)-4-(5-bromo-3-(1-cyano-2-(5-cyano-2-methoxyphenyl)vinyl)-1H-indol-1-yl)-4-oxobutylphosphonate] | 45 | 19 |  |  |
| COc1ccc(C#N)cc1/C=C(\C#N)c1cn(C(=O)CCCCP(=O)([O-])[O-])c2ccc(Br)cc12.[Na+].[Na+] [Example 14, disodium (Z)-5-(5-bromo-3-(1-cyano-2-(5-cyano-2-methoxyphenyl)vinyl)-1H-indol-1-yl)-5-oxopentylphosphonate] | 180 |  |  |  |
| COc1ccc(C#N)cc1/C=C(\C#N)c1cn(C(=O)CCCP(=O)(O)O)c2ccc(Br)cc12 [Example 16, (S)-2,6-diaminohexanoic acid compound with (Z)-4-(5-bromo-3-(1-cyano-2-(5-cyano-2-methoxyphenyl)vinyl)-1H-indol-1-yl)-4-oxobutylphosphonic acid (2:1)] | 35 (≈ 18.5 µg/mL) | < 10 |  |  |
| COc1ccc(C#N)cc1/C=C(\C#N)c1cn(C(=O)OCc2ccc(O[C@@H]3O[C@H](C(=O)O)[C@@H](O)[C@H](O)[C@H]3O)cc2)c2ccc(Br)cc12 [Example 19, (2S,3S,4S,5R,6S)-6-[4-[[5-bromo-3-[(Z)-1-cyano-2-(5-cyano-2-methoxy-phenyl)vinyl]indole-1-carbonyl]oxymethyl]phenoxy]-3,4,5-trihydroxy-tetrahydropyran-2-carboxylic acid] | 452 (≈ 318 µg/mL) |  |  |  |
| COc1ccc(C#N)cc1/C=C(\C#N)c1cn(C(=O)OCc2ccc(NC(=O)[C@H](CCCNC(N)=O)NC(=O)[C@@H](N)C(C)C)cc2)c2ccc(Br)cc12 [Example 21, hydrochloride] |  |  | 471 |  |
| COc1ccc(C#N)cc1/C=C(\C#N)c1cn(C(=O)OCc2ccc(NC(=O)[C@H](CCCNC(N)=O)NC(=O)[C@@H](NC(=O)CCOCCOCCOCCOCCNC(=O)CCN3C(=O)C=CC3=O)C(C)C)cc2)c2ccc(Br)cc12 [Example 22, [4-[[(2S)-2-[[(2S)-2-[3-[2-[3-(2,5-dioxopyrrol-1-yl)propanoylamino]ethoxy](peg4)propanoylamino]-3-methyl-butanoyl]amino]-5-ureido-pentanoyl]amino]phenyl]methyl 5-bromo-3-[(Z)-1-cyano-2-(5-cyano-2-methoxy-phenyl)vinyl]indole-1-carboxylate] |  |  | 2 (≈ 2.36 µg/mL) |  |
| COc1ccc(C#N)cc1/C=C(\C#N)c1cn(C(=O)OCc2ccc(NC(=O)[C@H](CCCNC(N)=O)NC(=O)[C@@H](NC(=O)C(CS(=O)(=O)O)NC(=O)OC(C)(C)C)C(C)C)cc2)c2ccc(Br)cc12 (some centres unmarked) [Example 24] |  |  | 201 (≈ 208 µg/mL) |  |
| COc1ccc(C#N)cc1/C=C(\C#N)c1cn(C(=O)OCc2ccc(NC(=O)[C@H](CCCNC(N)=O)NC(=O)[C@@H](NC(=O)[C@H](CS(=O)(=O)O)NC(=O)CCOCCOCCOCCOCCNC(=O)CCN3C(=O)C=CC3=O)C(C)C)cc2)c2ccc(Br)cc12 [Example 26] |  |  | 175 (≈ 233 µg/mL) |  |
| COc1ccc(C#N)cc1/C=C(\C#N)c1cn(C(=O)OCc2ccc(NC(=O)[C@H](CCCNC(N)=O)NC(=O)[C@@H](NC(=O)[C@H](CS(=O)(=O)O)NC(=O)CCOCCOCCOCCOCCNC(=O)CCN3C(=O)CC(SC[C@H](NC(C)=O)C(=O)O)C3=O)C(C)C)cc2)c2ccc(Br)cc12 (stereo partly drawn) [Example 27, N-acetyl-S-(1-((R)-2-(((S)-1-(((S)-1-((4-(((5-bromo-3-((Z)-1-cyano-2-(5-cyano-2-methoxyphenyl)vinyl)-1H-indole-1-carbonyl)oxy)methyl)phenyl)amino)-1-oxo-5-ureidopentan-2-yl)amino)-3-methyl-1-oxobutan-2-yl)carbamoyl)-4,20-dioxo-1-sulfo-7,10,13,16-tetraoxa-3,19-diazadocosan-22-yl)-2,5-dioxopyrrolidin-3-yl)-L-cysteine] |  |  |  | efficient drug release |
| COc1ccc(C#N)cc1/C=C(\C#N)c1c[nH]c2ccc(Br)cc12 [Example 38 of WO 2014/086964, (Z)-3-(2-(5-bromo-1H-indol-3-yl)-2-cyanovinyl)-4-methoxybenzonitrile, reference compound] | < 5 | < 5 |  |  |
